Test results as given in the supplement of paper PMC11208160.

assay: recombinant barcode read abundance after kanamycin selection (control-corrected) (log10(CPM+1)); higher = more efficient recombination; sequences stand for … in AGTGCAGAGAAAATCGGCCAGTTTTCTCTGCCTGCAGTCCGCATGCCGT…AGATTTATGCAGCGGACTGCCTTTCTCCCAAAGTGATAAACCGGACAGTATCATGGACCGGTTTTCCCGGTAATCCGTATTTGCAAGGTTGGTTTCACT; site = the 11-nt target
Outline: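 Recombination efficiency was calculated from barcode counts at recombinant junctions, normalized to counts per million, averaged and corrected by the control. Each value is given as log10(CPM+1). The constructs were Gibson-cloned oligos (promoter, target, barcode, J23119-driven first 104 bridge RNA bases) in a vector with the remaining 73 bp and a T7-inducible recombinase, co-electroporated into E. coli with a donor plasmid and plated in duplicate on chloramphenicol/ampicillin LB agar (control) or chloramphenicol/ampicillin/kanamycin with 0.1 mM IPTG.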
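Further: IS621 recombinase and bridge RNA in Escherichia coli cells.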

Sequence | recombinant barcode read abundance (log10)
AGACTCTCTTGGGTTCTAACCTGTTGCCT (site AGACTCTCTAG) | 2.01
AGACTCTCTTGGGTTCTAACCTGTTGCCT (site ATACTCTCTAG) | 0.377
AGACTTCCTTGGGTTCTAACCTGTTGCTT (site AGACATCCTAA) | 0.158
AGACTTCCTTGGGTTCTAACCTGTTGCTT (site AGACCTCCTAA) | 0.121
AGACTTCCTTGGGTTCTAACCTGTTGCTT (site AGACGTCCTAA) | 0.0179
AGACTTCCTTGGGTTCTAACCTGTTGCTT (site AGACTTCCTAA) | 0.811
AGAGAGTCTTGGGTTCTAACCTGTTGCCT (site AGAAAGTCTAC) | 0.0903
AGAGAGTCTTGGGTTCTAACCTGTTGCCT (site AGAGAGTCTAG) | 2.53
AGAGGGTCTTGGGTTCTAACCTGTTGCCT (site AAAGGGTCTAG) | 0.21
AGAGGGTCTTGGGTTCTAACCTGTTGCCT (site ACAGGGTCTAG) | 0.731
AGAGGGTCTTGGGTTCTAACCTGTTGCCT (site AGAGGGTCTAG) | 2.79
AGAGGGTCTTGGGTTCTAACCTGTTGCCT (site ATAGGGTCTAG) | 0.765
AGAGGTCCTTGGGTTCTAACCTGTTGCCT (site AGAGGTCCTAG) | 2.04
AGAGGTCCTTGGGTTCTAACCTGTTGCCT (site TGAGGGCCTAG) | 0.169
AGAGTGACTTGGGTTCTAACCTGTTGCCT (site AGAGAGACTAG) | 1
AGAGTGACTTGGGTTCTAACCTGTTGCCT (site AGAGCGACTAG) | 0.0794
AGAGTGACTTGGGTTCTAACCTGTTGCCT (site AGAGGGACTAG) | 0.0448
AGAGTGACTTGGGTTCTAACCTGTTGCCT (site AGAGTGACTAG) | 1.69
AGATTCACTTGGGTTCTAACCTGTTGCCT (site AGATTCACTAG) | 0.994
AGATTCACTTGGGTTCTAACCTGTTGCCT (site AGATTGACTTG) | 0.0824
AGATTCCCTTGGGTTCTAACCTGTTGCCG (site AGATTCCCTCG) | 1.67
AGATTCCCTTGGGTTCTAACCTGTTGCCG (site AGATTCGCTCG) | 0.0429
AGATTTCCTTGGGTTCTAACCTGTTGCAT (site AGATTTCCTAT) | 0.173
AGATTTCCTTGGGTTCTAACCTGTTGCAT (site CATCCGACTGA) | 0.0339
AGCAACACTTGGGTTCTAACCTGTTGCAG (site AGCAACACTCT) | 0.467
AGCAACACTTGGGTTCTAACCTGTTGCAG (site TCTCGTCCTTA) | 0.0984

Sequence | recombinant barcode read abundance (log10)
AGCAATTCTTGGGTTCTAACCTGTTGCCT (site AGAAATTCTAG) | 0.144
AGCAATTCTTGGGTTCTAACCTGTTGCCT (site AGCAATTCTAG) | 0.165
AGCAATTCTTGGGTTCTAACCTGTTGCCT (site AGGAATTCTAG) | 0.132
AGCAATTCTTGGGTTCTAACCTGTTGCCT (site AGTAATTCTAG) | 0.277
AGCAGCTCTTGGGTTCTAACCTGTTGCCT (site AGCAGCTCTAG) | 1.7
AGCAGCTCTTGGGTTCTAACCTGTTGCCT (site AGGAGCGCTAG) | 0.0136
AGCAGGACTTGGGTTCTAACCTGTTGCCG (site AGCACGACTCA) | 0.0667
AGCAGGACTTGGGTTCTAACCTGTTGCCG (site AGCAGGACTCG) | 1.17
AGCAGGGCTTGGGTTCTAACCTGTTGCAG (site AGCAGGGCTCT) | 2.14
AGCAGGGCTTGGGTTCTAACCTGTTGCAG (site AGTAGGACTCT) | 0.184
AGCAGGTCTTGGGTTCTAACCTGTTGCCT (site AACAGGTCTAG) | 0.109
AGCAGGTCTTGGGTTCTAACCTGTTGCCT (site ACCAGGTCTAG) | 0.234
AGCAGGTCTTGGGTTCTAACCTGTTGCCT (site AGCAGGTCTAG) | 1.09
AGCAGGTCTTGGGTTCTAACCTGTTGCCT (site ATCAGGTCTAG) | 0.0118
AGCAGTCCTTGGGTTCTAACCTGTTGCGT (site AGCAGTCCTAC) | 1.47
AGCAGTCCTTGGGTTCTAACCTGTTGCGT (site AGGAGTCCTAC) | 0.188
AGCAGTCCTTGGGTTCTAACCTGTTGCTG (site AGCAGTCCTCA) | 0.802
AGCAGTCCTTGGGTTCTAACCTGTTGCTG (site TCCAGTCCTCA) | 0.0256
AGCCACACTTGGGTTCTAACCTGTTGCCT (site AGCCACACTAG) | 0.933
AGCCACACTTGGGTTCTAACCTGTTGCCT (site AGCCACCCTAG) | 0
AGCCACACTTGGGTTCTAACCTGTTGCCT (site AGCCACGCTAG) | 0.374
AGCCACACTTGGGTTCTAACCTGTTGCCT (site AGCCACTCTAG) | 0.456
AGCCACACTTGGGTTCTAACCTGTTGCGT (site AGCCACACTAC) | 0.948
AGCCACACTTGGGTTCTAACCTGTTGCGT (site TGCCAGACTAC) | 0.183
AGCCCTCCTTGGGTTCTAACCTGTTGCTT (site AGCCCTCCTAA) | 0.518
AGCCCTCCTTGGGTTCTAACCTGTTGCTT (site AGCCCTCCTCA) | 0.667

Sequence | recombinant barcode read abundance (log10)
AGCCCTCCTTGGGTTCTAACCTGTTGCTT (site AGCCCTCCTGA) | 0.038
AGCCCTCCTTGGGTTCTAACCTGTTGCTT (site AGCCCTCCTTA) | 0.0347
AGCCTCCCTTGGGTTCTAACCTGTTGCCT (site AGACTCCCTAG) | 0.089
AGCCTCCCTTGGGTTCTAACCTGTTGCCT (site AGCCTCCCTAG) | 0.474
AGCCTCCCTTGGGTTCTAACCTGTTGCCT (site AGGCTCCCTAG) | 0.0381
AGCCTCCCTTGGGTTCTAACCTGTTGCCT (site AGTCTCCCTAG) | 0.578
AGCCTGACTTGGGTTCTAACCTGTTGCCT (site AGCCTGACTAG) | 0.741
AGCCTGACTTGGGTTCTAACCTGTTGCCT (site AGCCTGCCTAG) | 0.313
AGCCTGACTTGGGTTCTAACCTGTTGCCT (site AGCCTGGCTAG) | 0.332
AGCCTGACTTGGGTTCTAACCTGTTGCCT (site AGCCTGTCTAG) | 0
AGCCTGGCTTGGGTTCTAACCTGTTGCCT (site AGCCTGACTAG) | 0.302
AGCCTGGCTTGGGTTCTAACCTGTTGCCT (site AGCCTGCCTAG) | 0.235
AGCCTGGCTTGGGTTCTAACCTGTTGCCT (site AGCCTGGCTAG) | 0.594
AGCCTGGCTTGGGTTCTAACCTGTTGCCT (site AGCCTGTCTAG) | 0.0926
AGCGCTTCTTGGGTTCTAACCTGTTGCCT (site AACGCTTCTAG) | 0.241
AGCGCTTCTTGGGTTCTAACCTGTTGCCT (site ACCGCTTCTAG) | 0.423
AGCGCTTCTTGGGTTCTAACCTGTTGCCT (site AGCGCTTCTAG) | 0.454
AGCGCTTCTTGGGTTCTAACCTGTTGCCT (site ATCGCTTCTAG) | 0.0212
AGCGGACCTTGGGTTCTAACCTGTTGCCT (site AGCGGACCTAG) | 1.45
AGCGGACCTTGGGTTCTAACCTGTTGCCT (site AGCGGCCCTAG) | 0.133
AGCGGACCTTGGGTTCTAACCTGTTGCCT (site AGCGGGCCTAG) | 0.188
AGCGGACCTTGGGTTCTAACCTGTTGCCT (site AGCGGTCCTAG) | 0.0865
AGCTCACCTTGGGTTCTAACCTGTTGCCT (site AGCTCACCTAG) | 0.216
AGCTCACCTTGGGTTCTAACCTGTTGCCT (site AGCTCATCTAG) | 0.147
AGCTTACCTTGGGTTCTAACCTGTTGCCT (site AGCTTACCTAG) | 0.204
